From ChEMBL document CHEMBL2218064, “Structure-activity relationship data for chemical series of antagonists of the P2X7 receptor (Supplementary Bioactivity Data for publication CHEMBL1157114)”

The compounds below were run against T1, P2X purinoceptor 7 (Homo sapiens, UniProt Q99572) (assay: SUPPLEMENTARY: Inhibition of human P2X7 receptor assessed as inhibition of ethidium bromide accumulation. Same assay as CHEMBL1103860).
T1 sequence (Q99572 whole entry): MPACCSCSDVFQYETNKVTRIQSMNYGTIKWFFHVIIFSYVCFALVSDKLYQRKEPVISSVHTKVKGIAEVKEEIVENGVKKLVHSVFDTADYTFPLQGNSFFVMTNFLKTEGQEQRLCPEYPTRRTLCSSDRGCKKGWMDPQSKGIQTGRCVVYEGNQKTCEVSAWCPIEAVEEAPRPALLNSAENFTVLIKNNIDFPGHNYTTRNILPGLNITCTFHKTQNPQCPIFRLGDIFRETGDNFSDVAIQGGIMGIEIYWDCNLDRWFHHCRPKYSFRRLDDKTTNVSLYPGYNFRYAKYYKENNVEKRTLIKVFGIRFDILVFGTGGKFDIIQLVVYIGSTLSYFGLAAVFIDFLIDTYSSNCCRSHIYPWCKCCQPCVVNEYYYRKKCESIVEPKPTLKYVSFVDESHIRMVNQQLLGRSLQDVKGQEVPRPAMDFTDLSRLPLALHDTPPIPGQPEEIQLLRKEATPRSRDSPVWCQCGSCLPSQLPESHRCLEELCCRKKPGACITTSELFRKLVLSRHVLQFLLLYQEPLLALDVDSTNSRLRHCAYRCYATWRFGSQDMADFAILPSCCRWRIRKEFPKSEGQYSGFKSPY

Row | IC50 [nM] | Structure (SMILES)
1 | 63.1 | Cc1ccc(N2C[C@@H](C(=O)NCc3ccc(F)cc3Cl)N(C)C2=O)c(C)n1
2 | 3.16 | Cc1c(CNC(=O)[C@@H]2CCC(=O)N2C)cccc1C(F)(F)F
3 | 1.58 | O=C(c1cccc(C(F)(F)F)c1Cl)N1CCn2c(-c3ncccn3)cnc2C1
4 | 501 | O=C(c1ccc(F)cc1Cl)N1CCn2c(nnc2-c2cccnn2)C1
5 | 50.1 | Cc1nn(-c2ccc(F)cc2F)c(C)c1CC(=O)NCc1ccc(F)cc1Cl
6 | 7.94 | CC(C)N1C(=O)CC[C@H]1C(=O)NCc1ccc(Cl)cc1Cl
7 | 200 | Cc1cccc(Cl)c1CNC(=O)Cc1c(C)nn(CC(C)(C)O)c1C
8 | 3.16 | Cc1c(CNC(=O)[C@@H]2CCC(=O)N2C2CCC2)cccc1C(F)(F)F
9 | 158 | O=C(c1ccc(Cl)cc1Cl)N1CCn2c(nc(C(F)(F)F)c2-c2ccc(F)cc2)C1
10 | 1.58 | O=C(c1cccc(C(F)(F)F)c1Cl)N1CCn2c(nnc2-c2ccc[nH]2)C1
11 | 3.16 | O=C(c1cccc(Cl)c1Cl)N1CCn2c(nnc2-c2ccc(F)cc2)C1
12 | 63.1 | CN1C(=O)N(CCN2CCOCC2)C[C@H]1C(=O)NCc1ccc(F)c(F)c1Cl
13 | 7.94 | CC(C)c1ccccc1N1CCN(Cc2ccc(F)cc2Cl)C(=O)C1=O
14 | 316 | Cc1nn(-c2ccccc2)c(C)c1CC(=O)NCc1cccc(F)c1F
15 | 63.1 | O=C(c1c(Cl)cccc1Cl)N1CCN(c2ccc(F)cc2Cl)C(=O)C1
16 | 631 | Cc1cccnc1N1CCN(Cc2ccc(F)cc2Cl)C(=O)C1=O
17 | 39.8 | Cc1ccc(F)cc1N1CCN(Cc2ccc(F)cc2Cl)C(=O)C1=O
18 | 6.31 | O=C(c1cccc(C(F)(F)F)c1Cl)N1CCn2c(nc(I)c2I)C1
19 | 5.01 | CN1C[C@@H](C(=O)NCc2c(F)cc(Cl)cc2Cl)N(C)C1=O
20 | 7.94 | CC(C)c1ccccc1N1CCN(C(=O)c2cccc(C(F)(F)F)c2Cl)CC1=O
21 | 100 | C[C@H]1CC(=O)N(C)[C@@H]1C(=O)NCc1cccc(C(F)(F)F)c1Cl
22 | 126 | Cc1ccc(C(=O)N2CCn3c(nnc3-c3cnccn3)C2)c(C)c1
23 | 398 | CCN1C(=O)c2ccccc2C1C(=O)NCc1ccc(Cl)cc1Cl (stereo unspecified)
24 | 251 | O=C(c1ccc(F)cc1Cl)N1CCN(c2ccc(F)cc2Cl)C(=O)C1
25 | 31.6 | CN1C(=O)N(c2ccnc(F)c2)C[C@H]1C(=O)NCc1ccc(Cl)cc1Cl
26 | 50.1 | COc1ccc(N2CCOCC2)cc1N1CCN(Cc2ccc(F)cc2Cl)C(=O)C1=O

Row | IC50 [nM] | Structure (SMILES)
27 | 158 | Cc1cccc(N2CCN(Cc3ccc(F)cc3Cl)C(=O)C2=O)c1
28 | 100 | O=C(c1cccc(C(F)(F)F)c1Cl)N1CCn2ccnc2C1
29 | 398 | Cc1ccccc1N1CCN(Cc2ccc(Cl)cc2)C(=O)C1=O
30 | 12.6 | O=C(c1c(Cl)cc(Cl)cc1Cl)N1CCn2c(-c3ccccc3)cnc2C1
31 | 200 | CCN1CCN(C(=O)c2cccc(Cl)c2Cl)CC1=O
32 | 100 | COCCc1nnc2n1CCN(C(=O)c1cccc(C(F)(F)F)c1Cl)C2
33 | 7.94 | Cc1ccc(N2C[C@@H](C(=O)NCc3cccc(C(F)(F)F)c3Cl)N(C)C2=O)c(C)n1
34 | 39.8 | CCN1C(=O)C(C)(C)C[C@H]1C(=O)NCc1ccc(F)c(F)c1Cl
35 | 25.1 | CCN1C(=O)CC[C@H]1C(=O)NCc1cccc(C(F)(F)F)c1F
36 | 50.1 | CN1C(=O)N(c2cc(C(F)(F)F)ncn2)C[C@H]1C(=O)NCc1ccc(F)c(F)c1Cl
37 | 3.16 | CN1C(=O)N(CCF)C[C@H]1C(=O)NCc1ccc(Cl)cc1Cl
38 | 794 | O=C(c1ccc(Cl)cc1Cl)N1CCN(c2ccc(F)cc2F)C(=O)C1
39 | 31.6 | O=C(c1cccc(C(F)(F)F)c1Cl)N1CCn2c(nc(Br)c2-c2ccc(F)cc2)C1
40 | 31.6 | Cc1c(N2CCOCC2)cccc1N1CCN(Cc2ccc(F)cc2Cl)C(=O)C1=O
41 | 10 | CCc1ccccc1N1CCN(Cc2ccc(F)cc2Cl)C(=O)C1=O
42 | 398 | O=C1C(=O)N(c2cccc(I)c2)CCN1Cc1ccc(F)cc1Cl
43 | 200 | O=C(Cc1cnn(CCO)c1C(F)(F)F)NCc1ccc(F)cc1Cl
44 | 794 | COCCNCCn1ncc(CC(=O)NCc2ccc(F)cc2Cl)c1C(F)(F)F
45 | 15.8 | CCN1C(=O)CC[C@H]1C(=O)NCc1cccc(Cl)c1C
46 | 1.26 | Cc1cc(Cl)cc(Cl)c1CNC(=O)[C@@H]1CCC(=O)N1C
47 | 2 | O=C(c1ccc(Cl)cc1Cl)N1CCn2c(nnc2-c2cscn2)C1
48 | 2 | Cc1c(CNC(=O)[C@@H]2CNC(=O)N2C)cccc1C(F)(F)F
49 | 20 | O=C(c1ccc(Cl)cc1C(F)(F)F)N1CCn2c(nnc2-c2cnccn2)C1
50 | 158 | O=C1CN(C(=O)c2cccc(Cl)c2Cl)CCN1Cc1ccc(F)cc1Cl
51 | 100 | CCN1C(=O)CC[C@H]1C(=O)NCc1c(Cl)cccc1Cl
52 | 25.1 | CC(C)(C)CN1C(=O)CC[C@H]1C(=O)NCc1cccc(C(F)(F)F)c1Cl

Row | IC50 [nM] | Structure (SMILES)
53 | 501 | CCN(CC)C(=O)Cn1nc(C)c(CC(=O)NCc2ccc(F)cc2Cl)c1C
54 | 15.8 | COc1ccc(N2C[C@@H](C(=O)NCc3ccc(Cl)cc3Cl)N(C)C2=O)cn1
55 | 79.4 | COc1nnc2n1CCN(C(=O)c1cccc(C(F)(F)F)c1Cl)C2
56 | 12.6 | O=C(c1cccc(C(F)(F)F)c1Cl)N1CCn2c(Cl)cnc2C1
57 | 15.8 | O=C(c1cccc(C(F)(F)F)c1Cl)N1CCn2c(nnc2-c2ccc(F)cc2F)C1
58 | 12.6 | CN1C(=O)N(c2cncnc2)C[C@H]1C(=O)NCc1cccc(C(F)(F)F)c1Cl
59 | 15.8 | C[C@@H]1CC(=O)N(C)[C@@H]1C(=O)NCc1cccc(C(F)(F)F)c1Cl
60 | 251 | CN1CCN(C(=O)c2ccc(Cl)cc2Cl)CC1=O
61 | 398 | Cc1nn(C(C)(C)C)c(C)c1CC(=O)NCc1ccc(F)cc1Cl
62 | 200 | CCn1nc(C)c(CC(=O)NCc2ccc(F)cc2Cl)c1C
63 | 251 | CCN1C(=O)CC[C@H]1C(=O)NCc1ccccc1Br
64 | 200 | CC(C)(C)c1nnc2n1CCN(C(=O)c1cccc(C(F)(F)F)c1Cl)C2
65 | 631 | Cc1c(Cl)cccc1CNC(=O)[C@@H]1CCCS(=O)(=O)N1C(C)C
66 | 20 | COc1cccc(OC)c1N1CCN(Cc2ccc(F)cc2Cl)C(=O)C1=O
67 | 501 | Cc1nn(-c2ncccc2C(F)(F)F)c(C)c1CC(=O)NCc1ccc(F)cc1Cl
68 | 126 | CN1C(=O)CC[C@H]1C(=O)NCc1c(Cl)cccc1Cl
69 | 31.6 | CN1C(=O)N(c2cc(C(F)(F)F)ncn2)C[C@H]1C(=O)NCc1cccc(C(F)(F)F)c1Cl
70 | 251 | Cc1ccccc1N1CCN(Cc2ccc(F)c(F)c2F)C(=O)C1=O
71 | 10 | O=C(c1c(Cl)cc(Cl)cc1Cl)N1CCN(c2cc(N3CCOCC3)ccc2Cl)C(=O)C1
72 | 316 | Cc1cc(-n2nc(C)c(CC(=O)NCc3ccc(F)cc3Cl)c2C)ccn1
73 | 5.01 | CC(C)N1CC(C(=O)NCc2ccc(Cl)cc2Cl)N(C)C1=O (stereo unspecified)
74 | 3.98 | N#Cc1cc(F)ccc1N1CCN(C(=O)c2cccc(C(F)(F)F)c2Cl)CC1=O
75 | 10 | O=C(c1cccc(C(F)(F)F)c1Cl)N1CCn2c(Br)cnc2C1
76 | 7.94 | CN1C(=O)N(c2ncccn2)C[C@H]1C(=O)NCc1ccc(F)c(F)c1Cl
77 | 631 | O=C(c1cccc(Cl)c1Cl)N1CCn2cc(-c3ccccc3)nc2C1
78 | 63.1 | CC(C)CN1CC(C(=O)NCc2cccc(C(F)(F)F)c2Cl)CC1=O (stereo unspecified)

Row | IC50 [nM] | Structure (SMILES)
79 | 25.1 | COc1cccc(-c2nnc3n2CCN(C(=O)c2ccc(F)cc2Cl)C3)c1
80 | 15.8 | CN1C(=O)CC[C@H]1C(=O)NCc1cccc(Cl)c1Cl
81 | 15.8 | Cc1ccc(N2CCOCC2)cc1N1CCN(C(=O)c2cccc(Cl)c2Cl)CC1=O
82 | 158 | O=C(c1cccc(Cl)c1F)N1CCN(c2ccc(F)cc2Cl)C(=O)C1
83 | 158 | Cc1cc(F)ccc1CN1CCN(c2ccccc2C)C(=O)C1=O
84 | 2 | O=C(c1ccc(Cl)c(F)c1Cl)N1CCn2c(nnc2-c2cnccn2)C1
85 | 6.31 | Cc1c(Cl)cccc1CNC(=O)[C@@H]1CN(C)C(=O)N1C
86 | 398 | Cc1nn(Cc2nc3ccccc3s2)c(C)c1CC(=O)NCc1ccc(F)cc1Cl
87 | 15.8 | O=C(c1cccc(Cl)c1Cl)N1CCN(c2cccc3ccccc23)C(=O)C1
88 | 31.6 | Cc1cc(Cl)ccc1CNC(=O)[C@@H]1CNC(=O)N1C
89 | 501 | O=C(c1ccc(F)cc1Cl)N1CCn2c(Br)cnc2C1
90 | 100 | CN1C(=O)CC[C@H]1C(=O)NCc1ccc(F)cc1C(F)(F)F
91 | 15.8 | O=C(c1ccc(F)cc1Cl)N1CCn2c(nnc2-c2cccc(F)c2)C1
92 | 63.1 | CN1CCN(C(=O)c2cccc(C(F)(F)F)c2Cl)CC1=O
93 | 1.58 | O=C(c1cccc(C(F)(F)F)c1Cl)N1CCn2c(nnc2-c2ccco2)C1
94 | 100 | Cc1c(F)cccc1N1CCN(Cc2ccc(F)cc2Cl)C(=O)C1=O
95 | 5.01 | Cc1cccc(N2CCN(Cc3ccc(F)cc3Cl)C(=O)C2=O)c1C
96 | 15.8 | CN1C(=O)CC[C@@H]1C(=O)NCc1cccc(C(F)(F)F)c1Cl
97 | 3.16 | CN1C(=O)CC[C@H]1C(=O)NCc1ccc(F)c(C(F)(F)F)c1Cl
98 | 100 | Cc1ccccc1-c1cnc2n1CCN(C(=O)c1cccc(C(F)(F)F)c1Cl)C2
99 | 50.1 | O=C(c1ccc(F)cc1Cl)N1CCn2c(nnc2-c2ccc(F)c(F)c2)C1
100 | 200 | CC(C)CN1CCN(C(=O)c2cccc(C(F)(F)F)c2Cl)CC1=O
101 | 158 | CCN1C(=O)CC[C@H]1C(=O)NCc1c(F)ccc(C)c1Cl
